Test results from a melting point compilation (Tetko et al.; mined from patent text by program, amines drawn as free bases though some values may be those of a salt).

Row | melting point | Compound
1 | 311 to 313 °C | Cn1c(=O)[nH]c2nc3ccc(OCCCCC(=O)O)cc3cc21
2 | 136 to 137 °C | N#CCc1cccc(Cc2ccccc2)c1
3 | 230 °C | CCOC(=O)c1cn(C2CC2)c2nc3cc(F)c(F)cc3cc2c1=O
4 | 77 to 79 °C | COc1ccc(CC(SC)C(=O)OCc2ccccc2)cc1C(=O)NCc1ccc(C(F)(F)F)cc1 (stereo not drawn)
5 | 120 °C | CC(SCc1cc2cc(C(F)(F)F)ccc2n1S(=O)(=O)c1ccccc1)C(=O)O (stereo not drawn)
6 | 87 to 88 °C | CC(C)Cn1c(CO)c(-c2ccc(Cl)cc2)c2cc(OCc3ccccc3)ccc2c1=O
7 | 124 °C | COc1c(C)cc(C)cc1CNC(=O)CCl
8 | 196 to 198 °C | CCn1nc(OCC(=O)C(C)(C)C)c(-c2ccc(F)cc2)c1-c1ccc(S(N)(=O)=O)cc1
9 | 167 to 168 °C | CO[C@@H](Cc1ccc(OCCc2nc(-c3ccc(C(F)(F)F)cc3)oc2C)c2ccccc12)C(=O)O
10 | 145 °C | CCOC(=O)c1cc(NCc2ccccc2)c(Nc2ccc(OC)cc2)c(S(N)(=O)=O)c1
11 | 149 to 159 °C | CCOC(=O)c1c(NCc2ccccc2)n[nH]c1C
12 | 276 to 277 °C | O=C1c2ccccc2C(=O)N1c1ncnc2[nH]ccc12
13 | 87 to 89 °C | COC(=O)Cc1ccccc1SCc1cccc(OC)c1
14 | 236 to 239 °C | O=C(Nc1cnccc1C(=O)O)OCc1cc2cc(-c3ccccc3)ccc2o1
15 | 73.5 to 76.5 °C | CC(C(=O)N(C)C)n1ccc(-c2cc(Cl)ccc2Cl)n1 (stereo not drawn)
16 | 124 to 125 °C | CCOC(=O)c1cc2cccc(N(CC)S(=O)(=O)c3cccs3)c2[nH]1
17 | 210 to 214 °C | CCc1cc(-c2ccc(-c3cc(CCC(=O)NCc4cccnc4)[nH]n3)cc2)ccc1O
18 | 67 to 68 °C | CC(O)c1nc(NCCCOc2cccc(CN3CCCCC3)c2)n(C)n1 (stereo not drawn)
19 | 34 to 38 °C | O=C(CCNC(=O)[C@@H](O)Cc1ccccc1)OCc1ccccc1
20 | 172 to 173 °C | Cc1scc2c1N(C(=O)CN1CCCCC1CN(C)C)c1ccccc1NC2=O (stereo not drawn)
21 | 53 °C | CCc1noc(CC(=O)N(C)c2ccccc2)n1
22 | 157 to 158 °C | CCCCCc1c(/C=C/C(=O)O)n(C)c2cc(OC)ccc12
23 | 130 °C | O=C(Cn1cncn1)c1cccc2ccccc12

Second part, the molecule before the results:

Row | Compound | melting point
24 | COc1cccc(-n2c3c(c(=O)c4cccnc42)CC(CBr)O3)c1 (stereo not drawn) | 196 to 198 °C
25 | O=c1[nH]c2cc(OCC(O)CN3CCOCC3)ccc2c2oc3ccccc3c12 (stereo not drawn) | 228 to 230 °C
26 | CC(Cl)(Cl)C(NC(=O)c1cc(Cl)cc(Cl)c1)NC(=NC#N)Nc1ccc(Cl)nc1 (stereo not drawn) | 138 to 140 °C
27 | COc1cc2c(cc1OC)-c1cc(OC)c(OC)cc1C2=Cc1ccnc2ccccc12 | 226 to 228 °C
28 | C[C@@H](NC(=O)[C@@H](NC(=O)[C@H](CCCc1ccc(-c2ccccc2)c(Cl)c1)CC(=O)NO)C(C)(C)C)c1ccccc1 | 107 to 109 °C
29 | COc1ccc2c(c1)Sc1c(ccc(OC)c1C=O)N2C | 150 °C
30 | COC(=O)c1[nH]nc2c1CCc1cc(OC)c(Br)cc1-2 | 240 to 241 °C
31 | O=c1[nH]c2cc(Cl)ccc2c(O)c1-c1cccc(Oc2ccccc2)c1 | 303 to 306 °C
32 | Cc1cc(O)cc(N(C)C)c1 | 67 to 68 °C
33 | CC(=O)Oc1ccc(-c2ccc3cc(C(=O)O)ccc3c2)cc1 | 256 to 258 °C
34 | CC(C)(C)c1cc2c(cc1Br)C=C(C(=O)O)C(C(F)(F)F)O2 (stereo not drawn) | 199 to 200 °C
35 | CC1(C)Oc2ccc(CN)cc2[C@@H](N2CCCC2=O)[C@@H]1O (relative stereo) | 191 to 193 °C
36 | CCc1nc2c(cnn2CC)c(NC2CCOCC2)c1CNC(=O)c1cccc(C(=O)NCc2ccc(OC)c(-c3cccc(CN4CCNC(C)C4)c3)c2)c1 (stereo not drawn) | 110 to 112 °C
37 | COc1c(N2CCO[C@@H](CN(C)C)C2)c(F)cc2c(=O)c(C(=O)O)cn(C3CC3)c12 | 146 to 147 °C
38 | COC(=O)c1nc(NCC(O)CO)cnc1[N+](=O)[O-] (stereo not drawn) | 107 to 109 °C
39 | CC(C)Oc1ccc(CCCOc2cc(CCC(=O)O)n(C(C)C)n2)c(Oc2ncc(C(F)(F)F)cc2Cl)c1 | 128 °C
40 | Cc1ccc(S(=O)(=O)N2CCCC2c2cccnc2)cc1 (racemic) | 112 °C
41 | Cc1ccc2c3c(ccc2n1)OCC(CN1CCC2(CC1)C(=O)NCN2c1ccccc1)O3 (stereo not drawn) | 199 to 201 °C
42 | O=c1cnc2c(NCCO)nc(SCc3cccc(Cl)c3F)nc2[nH]1 | 195 to 196 °C
43 | COC(=O)c1cc(C(=O)N[C@@H](Cc2ccccc2)[C@H]2CN(C3(c4cccc(C(F)(F)F)c4)CC3)C(=O)O2)n2c1CN(C(=O)OC(C)(C)C)CC2 | 106 °C
44 | C#Cc1c[nH]c2ncnc(N3CCCCC3)c12 | 179 to 181 °C
45 | Nc1nc2c(sc(=O)n2C2OC(COC(=O)c3ccccc3)C(OC(=O)c3ccccc3)C2OC(=O)c2ccccc2)c(=O)[nH]1 (stereo not drawn) | 248 to 250 °C
46 | O=C(Nc1ccc(C=C2c3ccccc3CCc3ccccc32)cc1)c1ccncc1 | 252 °C

Row | Compound | melting point
47 | CCC(CC)Nc1cc(C(=O)O)ccc1N1C(=O)CCC1(CO)CCO (stereo not drawn) | 188 to 190 °C
48 | CNc1cc(Oc2ccc(NC(=O)Nc3ccc(-c4cccnc4)c(C(F)(F)F)c3)cc2)ncn1 | 118 to 123 °C
49 | CC1(C)[C@H](Cc2noc(C(F)(F)F)n2)CC[C@]1(C)NCC(=O)N1C[C@@H](F)C[C@H]1C#N | 130 to 131 °C
50 | COC(=O)CCCC=C(c1cc(C)c2oc(=O)n(C)c2c1)c1cc(C)c2oc(=O)n(C)c2c1 | 164 to 165 °C
51 | CCCNC(=O)[C@H]1CN(c2ccc(N3CCOCC3)c(F)c2)C(=O)O1 | 165 to 167 °C
52 | COc1ccc2c(c1)C(O)(CC#N)C(C)(C)CC2 (stereo not drawn) | 107 to 108 °C
53 | Cc1cc(Cl)nc(Cl)c1N | 83 to 85 °C
54 | COCc1cc(O)c2nc(C)n(C)c2c1 | 219 to 220 °C
55 | CC(=O)OC1CSC(Oc2cc(-c3ccc(F)nc3)cnc2Cl)C(OC(C)=O)C1OC(C)=O (stereo not drawn) | 70 to 90 °C
56 | CC(C)OC(=O)C=Cc1ccc(Br)cc1 | 64 to 66 °C
57 | NC(=O)Cn1ccc2cccc(NC(c3ccc4c(cnn4-c4ccc(F)cc4)c3)C(F)(F)F)c21 (stereo not drawn) | 105 °C
58 | NC(=O)c1ccc(OC2CCN(c3ccncc3)C2)cc1 (stereo not drawn) | 298 to 300 °C
59 | Fc1cccc(F)c1-c1nc(/C=C/c2ccc(-c3ccc(OC(F)(F)F)cc3)cc2)no1 | 122 to 123 °C
60 | Cc1c(C(=O)O)nc2c(=O)[nH]c3cc(F)ccc3n12 | > 250 °C
61 | O=C(CC1=C(n2nc(-c3c(-c4ccccc4)nn4ccccc34)ccc2=O)CCCC1)N1CCCCC1 | 184 to 185 °C
62 | CN(c1cccc2cc(-c3nncs3)[nH]c12)S(=O)(=O)c1cccs1 | 270 to 271 °C
63 | O=C(O)c1nn(-c2ccc(F)cc2F)c2c1[C@H]1CC[C@@H]2C1 | 110 to 112 °C
64 | CCCCCCCCCCCCCCCCOCC(O)CN1CCC(c2ccccc2)CC1 (stereo not drawn) | 64 to 65 °C
65 | CC(=O)Nc1cc(N2CCCC2)c2c(Cl)ccc3c2c1C(=O)N(O)C3=O | 152 to 154 °C
66 | CP(=O)(O)C(O)C(CN)c1ccc(Cl)cc1 (stereo not drawn) | 240 to 241 °C
67 | COC(=O)c1cc(Cl)cc2c1OC(C)C(=O)N2C (stereo not drawn) | 128 to 130 °C
68 | COc1ccc(N2CCOCC2)c2sc(NC(=O)c3ccnc(CN(C)C(C)=O)c3)nc12 | 228 to 230 °C
